The values below come from ChEMBL document CHEMBL4699517 (Bioorg Med Chem Lett, 2020).

Format in all cases: cell-based
Experiment [1] deals with Phosphatidylinositol 4,5-bisphosphate 3-kinase catalytic subunit gamma isoform (Homo sapiens) (UniProt P48736). The experiment in a line: Inhibition of PI3Kgamma in human Raji cells assessed as inhibition of cell viability at 100 nM after 72 hrs by CellTiter-Glo luminescence assay. (In ATP-based viability assays light output follows the ATP content of the culture.)
Chain of Phosphatidylinositol 4,5-bisphosphate 3-kinase catalytic subunit gamma isoform (Homo sapiens) (P48736 whole entry, looked up, canonical isoform): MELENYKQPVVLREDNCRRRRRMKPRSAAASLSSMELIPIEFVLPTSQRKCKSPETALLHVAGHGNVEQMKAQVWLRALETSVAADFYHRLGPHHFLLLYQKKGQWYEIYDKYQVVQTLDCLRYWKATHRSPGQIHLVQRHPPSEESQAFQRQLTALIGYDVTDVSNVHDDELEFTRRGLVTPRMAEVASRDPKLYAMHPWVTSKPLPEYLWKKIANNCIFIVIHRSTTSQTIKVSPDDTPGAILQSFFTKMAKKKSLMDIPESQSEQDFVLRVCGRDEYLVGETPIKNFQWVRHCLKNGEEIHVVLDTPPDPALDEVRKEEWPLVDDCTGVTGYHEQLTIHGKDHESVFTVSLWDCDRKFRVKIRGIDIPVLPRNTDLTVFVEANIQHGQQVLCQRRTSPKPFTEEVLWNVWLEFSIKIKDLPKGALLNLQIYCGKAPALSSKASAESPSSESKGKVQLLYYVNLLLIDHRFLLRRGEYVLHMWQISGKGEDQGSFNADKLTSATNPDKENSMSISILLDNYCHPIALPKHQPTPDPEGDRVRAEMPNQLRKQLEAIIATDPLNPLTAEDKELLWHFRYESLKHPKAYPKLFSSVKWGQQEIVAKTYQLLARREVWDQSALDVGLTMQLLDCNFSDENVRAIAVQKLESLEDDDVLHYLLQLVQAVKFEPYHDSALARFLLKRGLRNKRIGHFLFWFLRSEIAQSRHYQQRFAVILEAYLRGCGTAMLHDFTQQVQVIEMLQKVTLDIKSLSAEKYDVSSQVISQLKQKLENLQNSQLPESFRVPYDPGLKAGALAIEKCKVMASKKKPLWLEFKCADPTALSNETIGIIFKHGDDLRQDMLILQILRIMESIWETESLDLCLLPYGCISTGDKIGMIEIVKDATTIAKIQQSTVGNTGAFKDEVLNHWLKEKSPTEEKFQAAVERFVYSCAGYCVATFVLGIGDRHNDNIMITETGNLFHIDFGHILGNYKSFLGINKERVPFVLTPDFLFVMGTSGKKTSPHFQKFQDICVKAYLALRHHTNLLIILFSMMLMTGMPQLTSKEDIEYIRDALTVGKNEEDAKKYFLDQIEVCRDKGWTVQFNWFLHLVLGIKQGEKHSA
For experiment [2] the target is unchanged. The experiment in a line: Inhibition of PI3Kgamma in human SUDHL-6 cells assessed as inhibition of cell viability at 100 nM after 72 hrs by CellTiter-Glo luminescent assay. Particulars: SU-DHL-6.
The target is the same in experiment [3]. Kind of experiment: Inhibition of PI3Kgamma in human SUDHL-10 cells assessed as inhibition of cell viability at 100 nM after 72 hrs by CellTiter-Glo luminescent assay. The following applies: SU-DHL-10.
For experiment [4] the target is unchanged. The experiment in a line: Inhibition of PI3Kgamma in human MOLT-4 cells assessed as inhibition of cell viability at 100 nM after 72 hrs by CellTiter-Glo luminescent assay.
Experiment [5] has the same target. Kind of experiment: Inhibition of PI3Kgamma in human RPMI-8226 cells assessed as inhibition of cell viability at 100 nM after 72 hrs by CellTiter-Glo luminescent assay.
Experiment [6] has the same target. The experiment in a line: Inhibition of PI3Kgamma in human LCL-1 cells assessed as inhibition of cell viability at 100 nM after 72 hrs by CellTiter-Glo luminescent assay.

The structures appear in SMILES notation. The source made the active and inactive calls. No cut-off for these calls is given here.

As to `COC(=O)[C@@]12OC[C@]34[C@H]([C@@H](O)[C@@H]1O)[C@@]1(C)CC(=O)C(OC(=O)[C@H](C)N)=C(C)[C@@H]1C[C@H]3OC(=O)[C@H](OC(=O)C=C(C)C)[C@@H]24`, the inhibition entry in experiment [1] was “Active”. Same read-out and setting: the same measure for `COC(=O)[C@@]12OC[C@]34[C@H]([C@@H](O)[C@@H]1O)[C@@]1(C)CC(=O)C(OCC(=O)C(C)(C)C)=C(C)[C@@H]1C[C@H]3OC(=O)[C@H](OC(=O)C=C(C)C)[C@@H]24`: “inactive”.

Turning to `COC(=O)[C@@]12OC[C@]34[C@H]([C@@H](O)[C@@H]1O)[C@@]1(C)CC(=O)C(OC(=O)C[C@H](C)NC(C)=O)=C(C)[C@@H]1C[C@H]3OC(=O)[C@H](OC(=O)C=C(C)C)[C@@H]24`, the inhibition entry in experiment [2], in experiment [3], in experiment [1], in experiment [4], in experiment [5] and in experiment [6] was “Active” throughout. For `COC(=O)[C@@]12OC[C@]34[C@H]([C@@H](O)[C@@H]1O)[C@@]1(C)CC(=O)C(OCC(=O)NCCC(=O)O)=C(C)[C@@H]1C[C@H]3OC(=O)[C@H](OC(=O)C=C(C)C)[C@@H]24`, the inhibition result in experiment [1] was “inactive”. Take `COC(=O)[C@@]12OC[C@]34[C@H]([C@@H](O)[C@@H]1O)[C@@]1(C)CC(=O)C(OCC(N)=O)=C(C)[C@@H]1C[C@H]3OC(=O)[C@H](OC(=O)C=C(C)C)[C@@H]24`: the inhibition entry in experiment [1] was “inactive”.

As to `COC(=O)[C@@]12OC[C@]34[C@H]([C@@H](O)[C@@H]1O)[C@@]1(C)CC(=O)C(OC(=O)[C@H]5CCCN5)=C(C)[C@@H]1C[C@H]3OC(=O)[C@H](OC(=O)C=C(C)C)[C@@H]24`, the inhibition entry in experiment [2], in experiment [3], in experiment [1], in experiment [4], in experiment [5] and in experiment [6] was “Active” throughout. With `COC(=O)[C@@]12OC[C@]34[C@H]([C@@H](O)[C@@H]1O)[C@@]1(C)CC(=O)C(OC(=O)C[C@@H](N)C5CC5)=C(C)[C@@H]1C[C@H]3OC(=O)[C@H](OC(=O)C=C(C)C)[C@@H]24`, the inhibition result in experiment [1] is “inactive”. On the same count and under the same terms, for `CC[C@H](C)[C@H](N)C(=O)OC1=C(C)[C@@H]2C[C@H]3OC(=O)[C@H](OC(=O)C=C(C)C)[C@H]4[C@]5(C(=O)OC)OC[C@]34[C@H]([C@@H](O)[C@@H]5O)[C@@]2(C)CC1=O` the value was “Active”.

For `COC(=O)[C@@]12OC[C@]34[C@H]([C@@H](O)[C@@H]1O)[C@@]1(C)CC(=O)C(OC(=O)CN)=C(C)[C@@H]1C[C@H]3OC(=O)[C@H](OC(=O)C=C(C)C)[C@@H]24`, the inhibition result in experiment [1] is “Active”. Same read-out and setting: the same measure for `COC(=O)[C@@]12OC[C@]34[C@H]([C@@H](O)[C@@H]1O)[C@@]1(C)CC(=O)C(OCC(=O)NC(C)(C)C)=C(C)[C@@H]1C[C@H]3OC(=O)[C@H](OC(=O)C=C(C)C)[C@@H]24`: “inactive”; for `COC(=O)[C@@]12OC[C@]34[C@H]([C@@H](O)[C@@H]1O)[C@@]1(C)CC(=O)C(OCC(=O)NCCC(=O)OC(C)(C)C)=C(C)[C@@H]1C[C@H]3OC(=O)[C@H](OC(=O)C=C(C)C)[C@@H]24`: “inactive”; for `COC(=O)[C@@]12OC[C@]34[C@H]([C@@H](O)[C@@H]1O)[C@@]1(C)CC(=O)C(OC(=O)C[C@@H](N)C(C)C)=C(C)[C@@H]1C[C@H]3OC(=O)[C@H](OC(=O)C=C(C)C)[C@@H]24`: “inactive”. On the same count and under the same terms, for `COC(=O)[C@@]12OC[C@]34[C@H]([C@@H](O)[C@@H]1O)[C@@]1(C)CC(=O)C(OC(=O)C[C@@H](N)C(F)(F)F)=C(C)[C@@H]1C[C@H]3OC(=O)[C@H](OC(=O)C=C(C)C)[C@@H]24` the value was “inactive”.

`CC[C@H](C)[C@H](NC(=O)OC(C)(C)C)C(=O)OC1=C(C)[C@@H]2C[C@H]3OC(=O)[C@H](OC(=O)C=C(C)C)[C@H]4[C@]5(C(=O)OC)OC[C@]34[C@H]([C@@H](O)[C@@H]5O)[C@@]2(C)CC1=O`: in experiment [1], the inhibition entry was “inactive”.

For the compound `COC(=O)[C@@]12OC[C@]34[C@H]([C@@H](O)[C@@H]1O)[C@@]1(C)CC(=O)C(OC(=O)[C@H](CC(C)C)NC(=O)OC(C)(C)C)=C(C)[C@@H]1C[C@H]3OC(=O)[C@H](OC(=O)C=C(C)C)[C@@H]24`, the inhibition result in experiment [1] is “inactive”. Take `COC(=O)[C@@]12OC[C@]34[C@H]([C@@H](O)[C@@H]1O)[C@@]1(C)CC(=O)C(OC(=O)[C@H](C)NC(=O)OC(C)(C)C)=C(C)[C@@H]1C[C@H]3OC(=O)[C@H](OC(=O)C=C(C)C)[C@@H]24`: in experiment [1], the inhibition entry was “Active”. `COC(=O)[C@@]12OC[C@]34[C@H]([C@@H](O)[C@@H]1O)[C@@]1(C)CC(=O)C(OC(=O)[C@@H](N)CC(C)C)=C(C)[C@@H]1C[C@H]3OC(=O)[C@H](OC(=O)C=C(C)C)[C@@H]24`: in experiment [1], the inhibition entry was “Active”. Same read-out and setting: for `COC(=O)COC1=C(C)[C@@H]2C[C@H]3OC(=O)[C@H](OC(=O)C=C(C)C)[C@H]4[C@]5(C(=O)OC)OC[C@]34[C@H]([C@@H](O)[C@@H]5O)[C@@]2(C)CC1=O` the value was “inactive”; for `COC(=O)[C@@]12OC[C@]34[C@H]([C@@H](O)[C@@H]1O)[C@@]1(C)CC(=O)C(OCC(=O)NC(Cc5ccccc5)C(=O)OC(C)(C)C)=C(C)[C@@H]1C[C@H]3OC(=O)[C@H](OC(=O)C=C(C)C)[C@@H]24` (some centres not stated), “inactive”; for `COC(=O)[C@@]12OC[C@]34[C@H]([C@@H](O)[C@@H]1O)[C@@]1(C)CC(=O)C(OC(=O)C[C@H](C)NS(C)(=O)=O)=C(C)[C@@H]1C[C@H]3OC(=O)[C@H](OC(=O)C=C(C)C)[C@@H]24`, “inactive”. Still for that read-out and setting: for `COC(=O)[C@@]12OC[C@]34[C@H]([C@@H](O)[C@@H]1O)[C@@]1(C)CC(=O)C(OC(=O)[C@@H]5CCCN5C(=O)OC(C)(C)C)=C(C)[C@@H]1C[C@H]3OC(=O)[C@H](OC(=O)C=C(C)C)[C@@H]24` the value was “Active”; for `COC(=O)[C@@]12OC[C@]34[C@H]([C@@H](O)[C@@H]1O)[C@@]1(C)CC(=O)C(OC(=O)C[C@H](C)NC(=O)OC(C)(C)C)=C(C)[C@@H]1C[C@H]3OC(=O)[C@H](OC(=O)C=C(C)C)[C@@H]24`, “inactive”; for `COC(=O)[C@@]12OC[C@]34[C@H]([C@@H](O)[C@@H]1O)[C@@]1(C)CC(=O)C(OC(=O)[C@@H]5CCCN5)=C(C)[C@@H]1C[C@H]3OC(=O)[C@H](OC(=O)C=C(C)C)[C@@H]24`, “Active”. Consider `COC(=O)[C@@]12OC[C@]34[C@H]([C@@H](O)[C@@H]1O)[C@@]1(C)CC(=O)C(OCC(=O)NC(Cc5ccccc5)C(=O)O)=C(C)[C@@H]1C[C@H]3OC(=O)[C@H](OC(=O)C=C(C)C)[C@@H]24` (some centres not stated), for which the inhibition entry in experiment [1] is “inactive”. The same measure, in the same setting: for `COC(=O)[C@@]12OC[C@]34[C@H]([C@@H](O)[C@@H]1O)[C@@]1(C)CC(=O)C(OCC(=O)C5CC5)=C(C)[C@@H]1C[C@H]3OC(=O)[C@H](OC(=O)C=C(C)C)[C@@H]24` the value was “inactive”; for `COC(=O)[C@@]12OC[C@]34[C@H]([C@@H](O)[C@@H]1O)[C@@]1(C)CC(=O)C(OC(=O)[C@@H](NC(=O)OC(C)(C)C)C(C)C)=C(C)[C@@H]1C[C@H]3OC(=O)[C@H](OC(=O)C=C(C)C)[C@@H]24`, “inactive”; for `COC(=O)[C@@]12OC[C@]34[C@H]([C@@H](O)[C@@H]1O)[C@@]1(C)CC(=O)C(OC(=O)[C@@H](N)C(C)C)=C(C)[C@@H]1C[C@H]3OC(=O)[C@H](OC(=O)C=C(C)C)[C@@H]24`, “Active”.
